Data published in ChEMBL document CHEMBL4665914, “Identification of BRaf-Sparing Amino-Thienopyrimidines with Potent IRE1α Inhibitory Activity” (ACS Med Chem Lett, 2020).

Legend:
[1] = target: T1, Serine/threonine-protein kinase/endoribonuclease IRE1 (Homo sapiens, UniProt O75460); assay: Competitive inhibition of IRE1alpha LKR domain (Q470 to L997 residues) (unknown origin) expressed in Sf9 insect cells using mini-XBP-1 stem-loop RNA as substrate and measured every 2 mins for 50 mins by FRET assay
T1 sequence (O75460 whole entry, the tested form may be a part): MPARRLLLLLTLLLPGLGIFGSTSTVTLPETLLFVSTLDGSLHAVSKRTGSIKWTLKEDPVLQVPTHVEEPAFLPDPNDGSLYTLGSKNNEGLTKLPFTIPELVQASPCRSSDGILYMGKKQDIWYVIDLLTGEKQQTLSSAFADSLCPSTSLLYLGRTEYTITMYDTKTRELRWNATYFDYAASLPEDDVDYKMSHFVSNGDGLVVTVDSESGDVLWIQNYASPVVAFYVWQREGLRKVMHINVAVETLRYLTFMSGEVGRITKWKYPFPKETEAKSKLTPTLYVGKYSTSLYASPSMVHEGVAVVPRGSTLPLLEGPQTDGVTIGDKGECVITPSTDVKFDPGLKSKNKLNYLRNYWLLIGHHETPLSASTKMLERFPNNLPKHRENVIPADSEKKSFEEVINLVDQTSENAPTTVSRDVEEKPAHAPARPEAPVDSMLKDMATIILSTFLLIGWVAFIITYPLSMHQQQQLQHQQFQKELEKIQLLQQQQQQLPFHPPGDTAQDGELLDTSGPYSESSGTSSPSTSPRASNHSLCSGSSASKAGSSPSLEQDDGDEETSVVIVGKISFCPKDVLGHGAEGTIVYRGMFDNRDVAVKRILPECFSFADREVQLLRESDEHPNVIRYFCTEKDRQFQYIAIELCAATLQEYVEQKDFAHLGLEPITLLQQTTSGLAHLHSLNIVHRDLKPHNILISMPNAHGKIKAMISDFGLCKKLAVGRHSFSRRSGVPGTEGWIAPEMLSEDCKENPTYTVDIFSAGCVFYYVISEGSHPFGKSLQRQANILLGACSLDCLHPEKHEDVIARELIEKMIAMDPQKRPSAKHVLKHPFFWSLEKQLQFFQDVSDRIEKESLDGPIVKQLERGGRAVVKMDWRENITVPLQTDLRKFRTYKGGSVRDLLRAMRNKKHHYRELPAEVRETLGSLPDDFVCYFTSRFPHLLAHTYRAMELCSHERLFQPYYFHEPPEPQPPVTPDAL

[2] = target: T1, Serine/threonine-protein kinase/endoribonuclease IRE1; assay: Inhibition of IRE1alpha (unknown origin) assessed as XBP-1 slicing luciferase activity incubated for 1 hr followed by stimulation with thapsigargin measured after 5 hrs by luciferase reporter gene assay
[3] = target: Serine/threonine-protein kinase B-raf (Homo sapiens, UniProt P15056, V600E)
Sequence of Serine/threonine-protein kinase B-raf (P15056 2-766 V600E limits assumed): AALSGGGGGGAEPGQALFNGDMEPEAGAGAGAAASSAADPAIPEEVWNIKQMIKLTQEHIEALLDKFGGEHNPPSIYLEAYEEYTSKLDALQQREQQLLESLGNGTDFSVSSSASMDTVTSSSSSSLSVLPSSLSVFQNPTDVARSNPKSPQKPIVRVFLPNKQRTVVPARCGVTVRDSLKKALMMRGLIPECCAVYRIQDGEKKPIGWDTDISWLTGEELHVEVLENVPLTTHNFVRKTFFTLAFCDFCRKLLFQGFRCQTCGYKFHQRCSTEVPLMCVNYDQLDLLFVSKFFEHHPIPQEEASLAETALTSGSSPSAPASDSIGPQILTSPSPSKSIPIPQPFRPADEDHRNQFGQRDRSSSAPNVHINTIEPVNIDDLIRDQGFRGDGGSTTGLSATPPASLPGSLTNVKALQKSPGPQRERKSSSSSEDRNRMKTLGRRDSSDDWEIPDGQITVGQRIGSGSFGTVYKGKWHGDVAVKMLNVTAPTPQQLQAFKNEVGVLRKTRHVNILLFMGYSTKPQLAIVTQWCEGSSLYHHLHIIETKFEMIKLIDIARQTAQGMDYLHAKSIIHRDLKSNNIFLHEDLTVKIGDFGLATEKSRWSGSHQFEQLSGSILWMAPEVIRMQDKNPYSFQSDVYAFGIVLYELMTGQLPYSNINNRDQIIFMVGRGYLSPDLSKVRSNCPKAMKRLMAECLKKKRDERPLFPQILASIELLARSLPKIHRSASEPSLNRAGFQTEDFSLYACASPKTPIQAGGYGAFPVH

hERG (KCNH2) [4] = target: T2, hERG (KCNH2) (Homo sapiens, UniProt Q12809); assay: Inhibition of human ERG at 1 uM relative to control
T2 sequence (Q12809 whole entry): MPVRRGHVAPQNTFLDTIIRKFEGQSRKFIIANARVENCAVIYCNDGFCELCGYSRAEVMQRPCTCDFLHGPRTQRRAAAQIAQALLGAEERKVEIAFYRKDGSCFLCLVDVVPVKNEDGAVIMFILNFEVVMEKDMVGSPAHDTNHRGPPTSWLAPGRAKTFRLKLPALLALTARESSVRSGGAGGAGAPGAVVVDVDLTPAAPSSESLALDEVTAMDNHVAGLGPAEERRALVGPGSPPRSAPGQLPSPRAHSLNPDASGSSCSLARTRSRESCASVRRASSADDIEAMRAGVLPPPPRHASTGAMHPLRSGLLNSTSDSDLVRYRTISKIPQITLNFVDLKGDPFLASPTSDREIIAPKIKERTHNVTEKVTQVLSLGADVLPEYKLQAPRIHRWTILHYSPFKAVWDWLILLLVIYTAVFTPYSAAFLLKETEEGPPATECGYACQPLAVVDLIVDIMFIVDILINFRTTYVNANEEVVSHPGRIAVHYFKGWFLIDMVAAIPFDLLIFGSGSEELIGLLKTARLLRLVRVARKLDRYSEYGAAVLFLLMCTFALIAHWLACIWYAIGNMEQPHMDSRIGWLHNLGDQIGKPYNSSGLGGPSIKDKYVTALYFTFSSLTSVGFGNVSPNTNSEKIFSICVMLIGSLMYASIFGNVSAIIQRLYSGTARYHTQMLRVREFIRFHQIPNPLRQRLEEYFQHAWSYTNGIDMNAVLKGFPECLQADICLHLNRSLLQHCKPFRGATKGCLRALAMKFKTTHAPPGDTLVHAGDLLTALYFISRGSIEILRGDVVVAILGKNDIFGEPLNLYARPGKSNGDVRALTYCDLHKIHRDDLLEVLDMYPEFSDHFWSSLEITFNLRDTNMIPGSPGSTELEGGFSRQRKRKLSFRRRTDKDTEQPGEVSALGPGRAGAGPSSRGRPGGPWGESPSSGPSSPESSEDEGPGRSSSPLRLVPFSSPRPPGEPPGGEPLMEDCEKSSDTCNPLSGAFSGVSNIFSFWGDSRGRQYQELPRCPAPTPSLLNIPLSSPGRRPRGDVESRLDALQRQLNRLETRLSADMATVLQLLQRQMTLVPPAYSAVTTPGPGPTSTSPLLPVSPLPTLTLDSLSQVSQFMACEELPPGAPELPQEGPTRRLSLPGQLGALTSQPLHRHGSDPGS

hERG (KCNH2) [5] = target: T2, hERG (KCNH2); assay: Inhibition of human ERG at 10 uM relative to control

Row | SMILES | IC50 [1] [nM] | IC50 [2] [nM] | Ki [3] [nM] | inhibition at 1 µM (hERG (KCNH2) [4]) [%] | inhibition at 10 µM (hERG (KCNH2) [5]) [%]
1 | Cc1cc(NS(=O)(=O)c2ccccc2Cl)c2ccccc2c1Oc1ncccc1-c1ccnc(N[C@H]2CC[C@H](N)CC2)n1 | 4.2 | 57 | – | – | –
2 | Cc1cc(C(=O)Nc2c(Cl)ccc(NS(=O)(=O)c3cc(F)ccc3F)c2F)c2ncnc(NCCN)c2c1 | 920 | 31000 | 5.2 | – | –
3 | Nc1ncnc2c(C(=O)Nc3c(Cl)ccc(NS(=O)(=O)c4cc(F)ccc4F)c3F)csc12 | 67 | 5300 | ≤ 0.08 | – | –
4 | Cc1cc(C(=O)Nc2c(Cl)ccc(NS(=O)(=O)c3cc(F)ccc3F)c2F)c2ncnc(N[C@@H]3CCCNC3)c2c1 | 3500 | 19000 | 70 | – | –
5 | Cc1nn(C)cc1-c1cc(C(=O)Nc2c(Cl)ccc(NS(=O)(=O)c3ccccc3F)c2F)c2ncnc(N)c2c1 | 40 | 44 | ≤ 0.08 | – | –
6 | Cc1cc(C(=O)Nc2c(Cl)ccc(NS(=O)(=O)c3cc(F)ccc3F)c2F)c2ncnc(N[C@H]3CC[C@H](N)CC3)c2c1 | 700 | 19000 | 340 | – | –
7 | Nc1ncnc2c(C(=O)Nc3c(Cl)ccc(NS(=O)(=O)c4cc(F)ccc4F)c3F)cc(-c3cccnc3)cc12 | 47 | 4900 | ≤ 0.08 | – | –
8 | Cc1cc(C(=O)Nc2c(Cl)ccc(NS(=O)(=O)c3cc(F)ccc3F)c2F)c2ncnc(N)c2c1 | 31 | 1100 | ≤ 0.08 | – | –
9 | Cc1nn(C)cc1-c1cc(C(=O)Nc2c(Cl)ccc(NS(=O)(=O)c3ccccc3Cl)c2F)c2ncnc(N)c2c1 | 64 | 48 | 0.25 | – | –
10 | Cc1cc(C(=O)Nc2c(Cl)ccc(NS(=O)(=O)c3cc(F)ccc3F)c2F)c2ncnc(N[C@H]3CCCNC3)c2c1 | 670 | 9900 | – | – | –
11 | N[C@H]1CC[C@H](Nc2ncnc3c(C(=O)Nc4c(Cl)ccc(NS(=O)(=O)Cc5ccccc5)c4F)csc23)CC1 | 30 | 390 | 55 | – | –
12 | Nc1ncnc2c(C(=O)Nc3c(Cl)ccc(NS(=O)(=O)N4CCCC4)c3F)cccc12 | 200 | 5580 | 2.3 | – | –
13 | N[C@H]1CC[C@H](Nc2ncnc3c(C(=O)Nc4c(Cl)ccc(NS(=O)(=O)c5ccccc5Cl)c4F)csc23)CC1 | 22 | 120 | – | 1.1 | 6.4
14 | N[C@H]1CC[C@H](Nc2ncnc3c(C(=O)Nc4c(Cl)ccc(NS(=O)(=O)c5cc(F)ccc5F)c4F)csc23)CC1 | 24 | 320 | 1.4 | – | –
